# Measured values as given in the supplement of paper PMC10307832.
# How the values were obtained:
# Assay in all cases: relative viability (nuclei count vs DMSO), 5 days (fraction); higher = more cells survive
# AZ505 + Foretinib = compound: C1CCC(CC1)N(CCNCCC2=C3C(=C(C=C2)O)NC(=O)CO3)C(=O)CCNCCC4=CC(=C(C=C4)Cl)Cl [AZ505] + COc1cc2c(Oc3ccc(NC(=O)C4(C(=O)Nc5ccc(F)cc5)CC4)cc3F)ccnc2cc1OCCCN1CCOCC1 [Foretinib] (partner 0.25 µM)
# Method in brief: (§1)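 Relative viability equals treated-well nuclei counts divided by vehicle-well nuclei counts. Counts came from 4× images of lung cancer cell lines grown in 1536-well plates for 5 days after pin-tool dosing on the day after seeding. Dosing used one drug alone or a fixed anchor-drug dose plus five library-drug doses (not always all listed) in √10 steps, and values are medians of duplicate plates.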
# Dactolisib + Tozasertib = compound: Cn1c(=O)n(-c2ccc(C(C)(C)C#N)cc2)c2c3cc(-c4cnc5ccccc5c4)ccc3ncc21 [Dactolisib] + Cc1cc(Nc2cc(N3CCN(C)CC3)nc(Sc3ccc(NC(=O)C4CC4)cc3)n2)n[nH]1 [Tozasertib] (partner 0.1 µM)
# Method in brief: as §1
# Dactolisib + Olaparib = compound: Cn1c(=O)n(-c2ccc(C(C)(C)C#N)cc2)c2c3cc(-c4cnc5ccccc5c4)ccc3ncc21 [Dactolisib] + O=C(c1cc(Cc2n[nH]c(=O)c3ccccc23)ccc1F)N1CCN(C(=O)C2CC2)CC1 [Olaparib] (partner 8 µM)
# Method in brief: as §1
# AZ505 + Pictilisib = compound: C1CCC(CC1)N(CCNCCC2=C3C(=C(C=C2)O)NC(=O)CO3)C(=O)CCNCCC4=CC(=C(C=C4)Cl)Cl [AZ505] + CS(=O)(=O)N1CCN(Cc2cc3nc(-c4cccc5[nH]ncc45)nc(N4CCOCC4)c3s2)CC1 [Pictilisib] (partner 1 µM)
# Method in brief: as §1
Cell Line,relative viability (AZ505 + Foretinib; first compound 0.08 µM),relative viability (AZ505 + Foretinib; first compound 0.253 µM),relative viability (AZ505 + Foretinib; first compound 0.8 µM),relative viability (AZ505 + Foretinib; first compound 2.53 µM),relative viability (AZ505 + Foretinib; first compound 8 µM),relative viability (Dactolisib + Tozasertib; first compound 0.002 µM),relative viability (Dactolisib + Tozasertib; first compound 0.006325 µM),relative viability (Dactolisib + Tozasertib; first compound 0.02 µM),relative viability (Dactolisib + Tozasertib; first compound 0.06325 µM),relative viability (Dactolisib + Tozasertib; first compound 0.2 µM),relative viability (Dactolisib + Olaparib; first compound 0.002 µM),relative viability (Dactolisib + Olaparib; first compound 0.006325 µM),relative viability (Dactolisib + Olaparib; first compound 0.02 µM),relative viability (Dactolisib + Olaparib; first compound 0.06325 µM),relative viability (Dactolisib + Olaparib; first compound 0.2 µM),relative viability (AZ505 + Pictilisib; first compound 0.08 µM),relative viability (AZ505 + Pictilisib; first compound 0.253 µM),relative viability (AZ505 + Pictilisib; first compound 0.8 µM),relative viability (AZ505 + Pictilisib; first compound 2.53 µM),relative viability (AZ505 + Pictilisib; first compound 8 µM)
EMC-BAC-2,0.95,0.99,0.993,0.985,0.961,0.266,0.271,0.334,0.287,0.273,0.613,0.433,0.464,0.372,0.356,0.485,0.523,0.505,0.471,0.507
LK-2,1.28,1.34,1.18,1.08,1.68,0.209,0.197,0.181,0.153,0.171,0.61,0.836,0.491,0.328,0.17,0.562,0.706,0.59,0.597,0.604
NCI-H2126,0.892,1.16,1.19,1.1,1.13,0.813,0.829,0.814,0.536,0.452,0.975,0.895,0.878,0.514,0.44,0.448,0.462,0.535,0.452,0.544
NCI-H3122,0.889,0.993,0.837,0.964,1.05,0.427,0.361,0.425,0.352,0.16,0.564,0.557,0.659,0.629,0.641,0.561,0.573,0.665,0.409,0.643
NCI-H1975,0.889,0.928,0.902,0.946,0.96,0.753,0.724,0.578,0.267,0.138,0.778,0.817,0.632,0.302,0.269,0.264,0.303,0.267,0.277,0.283
NCI-H1944,0.875,0.903,0.938,0.806,0.761,0.308,0.237,0.237,0.156,0.153,0.548,0.386,0.397,0.265,0.21,0.343,0.372,0.346,0.344,0.334
LU99A,–,0.987,0.815,0.78,0.751,0.265,0.257,0.283,0.224,0.185,0.208,0.232,0.216,0.181,0.172,0.318,0.327,0.302,0.354,0.315
NCI-H2347,–,0.743,0.719,–,1.04,0.676,0.527,0.535,0.394,0.264,0.693,0.54,0.531,0.471,0.407,0.551,0.581,0.537,0.455,0.541
NCI-H2009,1.18,1.21,1.19,1.17,1.17,0.742,0.717,0.764,0.488,0.238,0.656,0.692,0.65,0.759,0.312,0.633,0.703,0.688,0.486,0.696
HCC-44,–,–,–,–,–,0.826,0.899,0.855,0.341,0.297,0.969,1.03,0.956,1.01,1.01,0.635,0.716,0.479,0.669,0.601
NCI-H1299,1.01,1.03,0.987,1.1,1.1,–,–,–,–,–,1.01,0.997,1.04,0.568,0.742,0.576,0.672,0.703,0.546,0.722
SW 900,0.85,0.972,0.968,0.927,0.616,0.633,0.669,0.511,0.426,0.36,1.22,0.853,0.689,0.502,0.424,–,–,–,–,–
NCI-H1563,0.928,0.965,0.902,0.866,0.93,–,–,–,–,–,–,–,–,–,–,0.612,0.62,0.695,0.595,0.609
A549,0.895,1.06,0.812,1.03,1.06,–,–,–,–,–,0.286,0.302,0.244,0.122,0.0942,0.461,0.569,0.519,0.585,0.59
NCI-H2342,1.07,1.02,1.02,1.14,1.14,0.475,0.496,0.435,0.502,0.362,0.411,0.369,0.501,0.376,0.382,–,–,–,–,–
NCI-H1623,0.76,0.781,0.834,0.79,0.99,0.396,0.414,0.428,0.37,0.298,–,–,–,–,–,–,–,–,–,–
NCI-H522,–,–,–,–,–,0.625,0.575,0.542,0.521,0.385,0.691,0.664,0.68,0.464,0.446,–,–,–,–,–
IA-LM,0.921,1.21,1.07,1.12,1.42,–,–,–,–,–,0.85,0.729,0.783,0.348,0.738,–,0.419,0.292,0.415,0.432
EBC-1,0.0937,0.0894,0.0949,0.0895,0.121,–,–,–,–,–,0.809,0.645,0.648,0.19,0.176,0.374,0.375,0.345,0.354,0.328
